Series [1] can be described thus: Fluorescence emission of myricetin derivatives (fluorimetry). The format is physicochemical. The following applies: 2.5 μM in ethanol (KB861 in THF); for λmax (nm): fluorescence emission. The method, then: All the KBX compounds and Myricetin were prepared for analysis of their fluorescent properties (Table 1) using ethanol as the solvent, with the exception of KB861 which used tetrahydrofuran (THF). All measurements were taken at a compound concentration of 2.5 μM.

Series [2] relates to Caco-2 cells. The series can be described thus: Probe fluorescence in menadione stressed versus healthy Caco-2 cells (fluorescence microscopy). The format is cell-based, human. As to conditions: for Effect of menadione concentration on intracellular fluorescence: Caco-2, 1, 10 and 20 μM menadione; for Decrease in fluorescence in stressed cells compared to healthy cells: confluent Caco-2, menadione stress, 20 μM probe; for Fluorescence in menadione exposed cultures relative to control non-stressed cultures: pre-confluent, proliferating Caco-2 cultures. Here is the method: Initially, confluent Caco-2 cells were placed under stress using menadione then incubated with 20 μM KB861 for 30 minutes. The fluorescence of KB861 in stressed cells was then compared to that of KB861 in healthy cells using fluorescence microscopy (FIG. 5).
Confluent Caco-2 cells were placed under stress using Menadione then incubated with 20 μM KB474 for 1 minute (FIG. 6) and 15 minutes (FIG. 7). The fluorescence of the compound in the stressed cells was then compared to its fluorescence in healthy Caco-2 cells.
Pre-confluent, proliferating Caco-2 cultures were also exposed to menadione prior to staining with KB861 or KB474.
The effect of menadione concentration on the intracellular fluorescence of compound KB861 and KB474 was also investigated.

The subject of series [3] is Caco-2 cells. The series can be described thus: Probe fluorescence in Caco-2 cells after glutathione depletion by BSO. In kind it is cell-based, human. As to conditions: Caco-2, glutathione depleted by progressive BSO exposure. The source says: To examine probe sensitivity to a less severe, more gradually provoked physiological oxidative stress within Caco-2 cells, cellular glutathione was depleted by progressive buthionine sulphoximine (BSO) exposure.

Series [4] can be described thus: In vitro oxidation of KB861 solutions, analysed by fluorimetry. In kind it is physicochemical. Here is the method:
A series of K5861 solutions (0.5, 1.0, and 1.5 μM) were prepared using THF. […] Another series of KB861 solutions of the same concentrations were prepared and analysed by fluorimetry in their natural unoxidised state (Graph 1).

The text below walks through data of patent publication US20100151508A1, “COMPOUNDS” (THE ROBERT GORDON UNIVERSITY, priority 2006, published 2010).

Take `CCCCCCCCCCc1ccc2c(=O)c(O)c(-c3cc(O)c(O)cc3O)oc2c1` [AOX166]: in series [1], the Emission intensity is given as 0.286 and the “λmax (nm)” value stood at 514.1 nm.
For the compound `O=c1c(O)c(-c2ccc(O)c(O)c2O)oc2ccccc12` [AOX558], in series [1], the Emission intensity stood at 0.166 and the “λmax (nm)” value amounted to 457.1 nm.
Regarding `O=c1c(O)c(-c2cc(O)c(O)cc2O)oc2ccccc12` [AOX563], in series [1], the Emission intensity came out at 0.199 and the “λmax (nm)” value was found to be 517.0 nm.
For the compound `CCc1ccc2c(=O)c(O)c(-c3cc(O)c(O)c(O)c3)oc2c1` [KB474, 7-ethyl-3-hydroxy-2-(3,4,5-trihydroxyphenyl)-4H-1-benzopyran-4-one], in the series with Caco-2 cells [2], the “Effect of menadione concentration on intracellular fluorescence” value is “dose dependent decrease” and the “Fluorescence in menadione exposed cultures relative to control non-stressed cultures” value is “dramatically decreased”. Further, the “Decrease in fluorescence in stressed cells compared to healthy cells” value in the series on Caco-2 cells [2] (1 minute and 15 minutes) is “at least 75%”. In series [1], the Emission intensity came to 321.113 and the “λmax (nm)” value came out at 504.9 nm. For the same compound, the “Fluorescence emission after BSO exposure” value with Caco-2 cells [3] was “striking decrease”.
With `CCCCCCCCCCc1ccc2c(=O)c(O)c(-c3cc(O)c(O)c(O)c3)oc2c1` [KB861, 7-decyl-3-hydroxy-2-(3,4,5-trihydroxyphenyl)-4H-1-benzopyran-4-one], in the series with Caco-2 cells [2], the “Effect of menadione concentration on intracellular fluorescence” value is given as “correlated with the concentration of menadione exposure” and the “Fluorescence in menadione exposed cultures relative to control non-stressed cultures” value is on record as “dramatically decreased”. In addition, the “Decrease in fluorescence in stressed cells compared to healthy cells” value in the series on Caco-2 cells [2] (30 minutes) is 30-40%. Moreover, in series [4] (0.5, 1.0, 1.5 μM in THF), the “Fluorescence emission at 540 nm, natural unoxidised state” value is recorded as “highly fluorescent”. The “Fluorescence emission at 540 nm after oxidation” value in series [4] (0.5, 1.0, 1.5 μM in THF, oxidised by excess AgO) is “almost completely disappears”. Moreover, the “Fluorescence on exposure to hydrogen peroxide” value in series [4] (hydrogen peroxide as stated) is “diminished”. Moreover, in series [1], the Emission intensity is on record as 664.669 and the “λmax (nm)” value was determined as 544.7 nm. For the same compound, the “Fluorescence emission after BSO exposure” value in the series with Caco-2 cells [3] is on record as “striking decrease”.
Turning to `O=c1c(O)c(-c2cc(O)c(O)c(O)c2)oc2cc(O)cc(O)c12` [Myricetin, 3,5,7-trihydroxy-2-(3,4,5-trihydroxyphenyl)-4H-1-benzopyran-4-one, reference compound], in series [1], the Emission intensity stood at 17.419 and the “λmax (nm)” value was determined as 499.5 nm.
